Data on 18 compounds can be found in ChEMBL document CHEMBL1201862, “PubChem BioAssay data set” (2004).

One test concerns the target Beta-galactosidase (Escherichia coli, UniProt Q8VNN2). The test is described as follows: Dose response counterscreen for EBI2 assay utilizing the enzyme, b-galactosidase. The test is classed as functional. A general note: A counterscreen serves to expose hits that act by an unwanted route or on another target.
For test [1], the target named is T1, Corticotropin-releasing factor receptor 2/Corticotropin-releasing factor-binding protein (Homo sapiens, UniProt P24387+Q13324).
T1 sequence (Q13324 whole entry): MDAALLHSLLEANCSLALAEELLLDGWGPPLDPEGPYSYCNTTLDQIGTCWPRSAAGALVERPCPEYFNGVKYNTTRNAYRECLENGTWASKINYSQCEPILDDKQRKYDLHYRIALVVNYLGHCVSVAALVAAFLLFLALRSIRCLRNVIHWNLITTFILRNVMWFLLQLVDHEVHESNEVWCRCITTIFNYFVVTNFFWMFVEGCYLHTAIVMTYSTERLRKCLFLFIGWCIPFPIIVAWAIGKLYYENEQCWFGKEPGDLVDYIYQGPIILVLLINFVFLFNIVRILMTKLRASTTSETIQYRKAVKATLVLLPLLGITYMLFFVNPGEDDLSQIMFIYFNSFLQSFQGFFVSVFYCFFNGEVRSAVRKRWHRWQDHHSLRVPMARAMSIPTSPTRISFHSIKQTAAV
T1 sequence (P24387 whole entry): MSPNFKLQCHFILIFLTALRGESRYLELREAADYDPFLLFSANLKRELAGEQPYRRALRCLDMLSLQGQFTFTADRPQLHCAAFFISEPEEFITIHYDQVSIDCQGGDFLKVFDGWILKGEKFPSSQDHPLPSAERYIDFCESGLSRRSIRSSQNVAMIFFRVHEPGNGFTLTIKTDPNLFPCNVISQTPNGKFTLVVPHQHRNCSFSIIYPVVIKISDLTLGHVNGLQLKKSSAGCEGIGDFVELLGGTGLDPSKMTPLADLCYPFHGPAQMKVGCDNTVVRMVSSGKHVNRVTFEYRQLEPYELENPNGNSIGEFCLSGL
The experiment in a line: activators of CRF receptor 2 with binding protein – uHTS hits, confirmation (AID 602473). The class given is functional. The note with it: read-out: EC50_Mean.

Test [2] can be described thus: CRF-BP/CRF-R2 complex antagonists, dose response, cell-based, uHTS hits, 384-well (AID 651639). The note with it: read-out: IC50_Mean. The class given is functional, Homo sapiens.
The target of test [3] is T1, Corticotropin-releasing factor receptor 2/Corticotropin-releasing factor-binding protein. The experiment in a line: Dose Response confirmation of uHTS hits for small molecule antagonists of the CRF-binding protein and CRF-R2 receptor complex. The test is classed as functional. The note with it: read-out: IC50_Mean.
Test [4] can be described thus: cells. The class given is functional, cell-based.
Test [5] addresses T2, Nuclear receptor subfamily 0 group B member 1 (Homo sapiens, UniProt P51843).
T2 sequence (P51843 whole entry): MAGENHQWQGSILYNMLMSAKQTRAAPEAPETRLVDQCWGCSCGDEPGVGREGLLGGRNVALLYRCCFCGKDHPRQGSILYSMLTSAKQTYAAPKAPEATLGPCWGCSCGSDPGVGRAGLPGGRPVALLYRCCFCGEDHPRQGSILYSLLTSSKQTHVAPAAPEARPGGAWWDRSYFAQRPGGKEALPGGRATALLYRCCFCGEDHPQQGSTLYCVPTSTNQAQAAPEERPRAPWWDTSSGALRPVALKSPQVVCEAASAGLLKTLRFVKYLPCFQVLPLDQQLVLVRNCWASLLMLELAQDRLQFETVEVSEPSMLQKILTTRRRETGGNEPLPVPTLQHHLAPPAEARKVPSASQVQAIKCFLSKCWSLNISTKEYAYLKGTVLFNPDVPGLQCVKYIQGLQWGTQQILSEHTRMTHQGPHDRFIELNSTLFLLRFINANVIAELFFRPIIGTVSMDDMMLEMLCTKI
The test is classed as functional, cell-based.

In test [6] the target is Long-chain-fatty-acid--AMP ligase FadD28 (Mycobacterium tuberculosis, UniProt P9WQ59). The test is described as follows: Fluorescence polarization aasay to screen for inhibitors that compete for the binding of FadD28 to a bisubstrate Measured in Biochemical System Using Plate Reader - 2147-01_Inhibitor_Dose_CherryPick_Activity. The test is classed as functional, Mycobacterium tuberculosis H37Rv. A general note: Polarisation of emitted light reports the rotation of a fluorescent probe.

Test [7] concerns the target T3, Fatty acid synthase (Homo sapiens, UniProt P49327). The test is described as follows: FAS thioesterase domain inhibitors, dose response, biochemical, kinetic fluorescence intensity (AID 624326).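 Further: rate of fluorescence rise from hydrolysis of a fluorogenic O-methyl fluorescein ester substrate.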 The class given is functional.
The target in test [8] is T3, Fatty acid synthase. The experiment in a line: FAS thioesterase domain inhibitors, dose response, biochemical, endpoint fluorescence intensity, uHTS hits (AID 624327).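 Further: fluorescence from hydrolysis of an O-methyl fluorescein acyl ester substrate by the enzyme.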 The test is classed as functional.
The target of test [9] is T4, Methionyl-tRNA synthetase, putative (Trypanosoma brucei brucei, UniProt Q38C91).
T4 sequence (Q38C91 whole entry): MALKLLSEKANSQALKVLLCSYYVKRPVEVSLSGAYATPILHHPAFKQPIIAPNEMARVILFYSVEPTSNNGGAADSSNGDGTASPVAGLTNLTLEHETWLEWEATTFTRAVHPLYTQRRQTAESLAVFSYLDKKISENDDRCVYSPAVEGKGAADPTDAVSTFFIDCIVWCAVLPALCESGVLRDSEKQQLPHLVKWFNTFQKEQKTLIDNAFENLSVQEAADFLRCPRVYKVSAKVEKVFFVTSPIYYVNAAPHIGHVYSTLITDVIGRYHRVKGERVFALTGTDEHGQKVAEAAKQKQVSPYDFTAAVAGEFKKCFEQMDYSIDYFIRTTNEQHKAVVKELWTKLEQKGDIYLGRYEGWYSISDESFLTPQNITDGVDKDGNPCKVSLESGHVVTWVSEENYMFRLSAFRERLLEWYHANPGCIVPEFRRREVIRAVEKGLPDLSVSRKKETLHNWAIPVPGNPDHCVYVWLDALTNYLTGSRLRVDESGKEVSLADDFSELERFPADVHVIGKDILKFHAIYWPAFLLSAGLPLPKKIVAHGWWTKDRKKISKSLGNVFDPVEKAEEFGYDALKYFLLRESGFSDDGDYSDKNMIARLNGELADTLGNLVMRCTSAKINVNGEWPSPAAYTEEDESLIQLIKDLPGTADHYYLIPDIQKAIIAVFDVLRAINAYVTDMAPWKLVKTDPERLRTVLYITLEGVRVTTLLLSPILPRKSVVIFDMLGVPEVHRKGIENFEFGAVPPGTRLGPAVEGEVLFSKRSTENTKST
The test is classed as functional, Trypanosoma brucei brucei strain 927/4 GUTat10.1.

The target in test [10] is T4, Methionyl-tRNA synthetase, putative. The class given is functional, Trypanosoma brucei brucei strain 927/4 GUTat10.1. This is another data set of the same source.
Test [11] deals with Photoreceptor-specific nuclear receptor (Homo sapiens, UniProt Q9Y5X4). The class given is functional, cell-based.
Test [12] can be described thus: Counterscreen for inhibitors of Trypanosoma brucei methionyl tRNA synthetase (MetRS): Luminescence-based cell-based high throughput dose response assay to identify compounds that are cytotoxic to Jurkat human T lymphocyte cells. The test is classed as functional.
Test [13] is described as follows: StAR promoter reporter inhibition counter-screen, dose response, counter-screen for LRH-1 inverse agonist project, cell-based, luminescence, luciferase reporter (AID 651969). The test is classed as functional.
A further test concerns the target Steroidogenic factor 1 (Homo sapiens, UniProt Q13285). The experiment in a line: Counterscreen for inverse agonists of the liver receptor homolog-1 (LRH-1; NR5A2): Luminescence-based cell-based high throughput dose response assay to identify inverse agonists of the Steroidogenic Factor 1 Nuclear Receptor (SF1; NR5A1). The test is classed as functional.
In test [14] the target is Nuclear receptor subfamily 5 group A member 2 (Homo sapiens, UniProt O00482). The test is classed as functional, cell-based.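 Further: HEK293T cells transfected with LRH-1 and a StAR promoter luciferase reporter; potency for inhibitors that lower LRH-1 driven reporter light.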
Test [15] is described as follows: non-specific cell cytotoxicity, dose response, cytotoxicity control for PAX8 inhibitor project, plate reader, dry powder samples (AID 743021). The class given is functional, cell-based.
A short description of test [16]: cells. The test is classed as functional, cell-based. The note with it: HEK-CNG.
The nature of test [17]: cells.
The target in a further test is T5, Galanin receptor type 3 (Homo sapiens, UniProt O60755).
T5 sequence (O60755 whole entry): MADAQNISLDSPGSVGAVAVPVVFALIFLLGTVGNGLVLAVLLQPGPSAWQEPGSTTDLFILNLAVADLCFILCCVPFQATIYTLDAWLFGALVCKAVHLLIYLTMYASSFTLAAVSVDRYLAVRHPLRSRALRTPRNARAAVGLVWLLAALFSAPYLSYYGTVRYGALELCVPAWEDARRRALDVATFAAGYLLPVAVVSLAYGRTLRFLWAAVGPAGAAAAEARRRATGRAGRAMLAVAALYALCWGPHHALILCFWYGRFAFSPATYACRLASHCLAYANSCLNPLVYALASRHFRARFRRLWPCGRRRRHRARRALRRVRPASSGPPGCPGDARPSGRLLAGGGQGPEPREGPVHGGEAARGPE
The test is described as follows: Fluorescence-based cell-based primary high throughput dose response assay to identify antagonists of the Galanin Receptor 3 (GalR3). The class given is functional.

The next test deals with Major prion protein (Homo sapiens, UniProt P04156). The class given is functional, cell-based.
The nature of test [18]: HEK293T cytotoxicity, dose response, cytotoxicity control for miR-122 modulator project, cell-based, inhibitor set, cherry-pick, set 2 (AID 720697). The test is classed as functional.
The target of the next test is Protein Wnt-3a (Mus musculus, UniProt P27467). The experiment in a line: SAR analysis of small molecule antagonists of Gli-SUFU in a Wnt3a luminescent reporter assay. The class given is functional. (Reporter assays use an easily measured gene product as a stand-in for the process of interest.)

The source made the active and inactive calls.

A word on the AC50: it is the concentration giving half of the maximal activity seen.

On to `Cc1ccc(NC2=CC(=O)CC(c3ccc(Cl)cc3)C2)cc1` (configuration not stated), for which, at Beta-galactosidase, the IC50 is > 80 µM (inactive).
For `Nc1nnc(SCc2ccc(F)cc2Cl)s1`, in test [1], the EC50 is > 53 µM (inactive). Moreover, the IC50 in test [2] is 0.941 µM (active); in [3] it was 14.3 µM (active).
As for `CC1=C(C(=O)Nc2ccc(CC(=O)NCc3ccc(OC(C)C)cc3)cc2)SCCO1`, the IC50 (in the test “cells [4]”; in test [5]) was > 67.5 µM (inactive) each time.
Take `O=C(CN1C(=O)S/C(=C\c2ccccc2)C1=O)Nc1cc([N+](=O)[O-])ccc1O`: in [6], the AC50 was 61.2 µM (active). In addition, the results for the IC50 at Fatty acid synthase [7] and at Fatty acid synthase [8] were 1.83 µM (active) and 2.94 µM (active), respectively.
As for `COc1cccc(NC(=O)CSc2nc3cc(Br)c[nH]c-3n2)c1`, the IC50 in test [9] is 4.03 µM (active); in [10] it was 2 µM (active); in test [11], 0.377 µM (active); in [12] it was 83.3 µM (inactive).
With `COc1ccccc1N1CCN(C(=O)c2cc(-c3ccc(F)cc3)[nH]c2C)CC1`, on Beta-galactosidase, the IC50 is > 80 µM (inactive).
Consider `COc1ccc(C2Nc3ccccc3C(=O)N2c2ccccc2)cc1CSc1ccccn1` (configuration not stated), for which the EC50 in test [1] is > 53 µM (inactive). Further, the IC50 in test [2] was 17.3 µM (active); in [3], 2.16 µM (active).
With `O=C(COc1ccc2c3c(c(=O)oc2c1)CCCC3)NCc1ccccn1`, the IC50 (in test [13]; on Steroidogenic factor 1; in [14]) was 35.9 µM (inactive) in each case.
For `Cn1c(SCC(=O)c2ccccc2)nnc1-c1ccccn1`, in [15], the AC50 is 51 µM (active).
As to `CCCc1cc(=O)oc2cc(C)cc(OCC(=O)NC3CC3)c12`, the IC50 in test [13] was 35.9 µM (inactive); on Steroidogenic factor 1, 0.0932 µM (active); in test [14], 1.31 µM (active).
As to `C/C(=N\NC(=O)c1ccccc1O)c1cccs1`, the IC50 (in “cells [4]”; in test [5]) was > 67.5 µM (inactive) in each case.
For the compound `Cc1cc(Br)cn2c(Cc3cccc(Cl)c3)c(-c3ccco3)nc12`, the EC50 in the test “cells [16]” was > 29.9 µM (inactive). Also, the IC50 was 66.2 µM (inactive) in “cells [17]”, 8.41 µM (active) on Galanin receptor type 3 and 10.5 µM (inactive) on Major prion protein.
On to `N#Cc1ccc(-c2nc3ccc(Br)cn3c2Cc2cccc(F)c2)cc1`, for which the IC50 in the test “cells [17]” was > 138 µM (inactive); on Major prion protein, 2.98 µM (active).
Take `O=c1c2c(O)cc(CSc3nnnn3-c3ccccc3)nc2[nH]n1-c1ccccc1`: in test [6], the AC50 was > 100 µM (inactive).
Consider `CNC(=O)C[C@@H]1CC[C@@H]2[C@H](COc3ccc(NC(=O)Nc4ccc(Cl)cc4)cc3C(=O)N2C)O1`, for which the AC50 in test [18] was 0.415 µM (active).
With `COc1ccccc1C(=O)N1C[C@@H]2[C@H](c3ccccc31)[C@H](CO)N2CC1CCCC1`, in [18], the AC50 was 9.28 µM (active).
Turning to `CCC(C)Nc1cc(NC(=O)c2ccccc2)ncn1` (configuration not stated), the IC50 on Protein Wnt-3a is > 21.8 µM (inactive).
On the same count and under the same terms, as for `CCN(CC)c1cc(NC(=O)c2ccccc2)nc(C)n1`, the figure is > 21.8 µM (inactive).
